This test deals with gene expression. The test is described as follows: Differential gene expression by microarray, linear multi-factor model (FIG. 3). Type of test: in vivo, rats. The following applies: in both males and females, relative to baseline treatment combination (males who received corn oil). As for the experimental part: Returning to FIG. 1, the gene expression data 14 thus acquired and, typically, background-corrected, transformed, normalized, and/or otherwise conditioned, is analyzed at step 16 without aggregating or summarizing the readings of the multiple probes from each gene, and with simultaneous assessment of the effects of all the experimental factors. For example, a linear, multi-factor model is used in one embodiment to achieve this. The linear, multi-factor model explicitly accounts for differences in expression between genes, between probes from the same gene, and between the effects of experimental factors (which in one embodiment are gender of the experimental animals, and chemical substance they have been exposed to). The effects of the experimental factors on gene expression are estimated simultaneously, rather than one-at-a-time. In this way, the analysis corresponds to the experimental design, where the factor levels are varied together and simultaneously, rather than one at a time, this enabling the assessment of possible, non-linear interactions between experimental factors. In one example, the linear model is of the form Yijnk=γn+τkn+σln+(τσ)kln+επjn+εijkln […]

Take `Clc1cc2c(cc1Cl)Oc1cc(Cl)c(Cl)cc1O2` [TCDD]: the “differential gene expression (fold increase) of the genes denoted by reference number 40” value is “about 40 fold”.

The values are drawn from patent US20060216718A1, “Method and system for estimating gene expression data” (priority 2005, published 2006).
